Source: ChEMBL document CHEMBL4715730, “Design, synthesis, and pharmacological evaluation of multitarget-directed ligands with both serotonergic subtype 4 receptor (5-HT4R) partial agonist and 5-HT6R antagonist activities, as potential treatment of Alzheimer's disease” (Eur J Med Chem, 2016)
The source made the active and inactive calls. The calls are words filed in the database; no cut-off is given here.

Key:
[1] = biological target: T1, 5-hydroxytryptamine receptor 6 (Homo sapiens, UniProt P50406); experiment: Displacement of [3H]-LSD from human 5-HT6 receptor expressed in HEK293 cells at 0.01 uM in presence of serotonin incubated for 60 mins; format: cell-based
[2] = biological target: T1, 5-hydroxytryptamine receptor 6; experiment: Displacement of [3H]-LSD from human 5-HT6 receptor expressed in HEK293 cells at 1 uM in presence of serotonin incubated for 60 mins; format: cell-based
[3] = biological target: 5-hydroxytryptamine receptor 4 (Cavia porcellus, UniProt O70528); experiment: Displacement of [3H]-GR113808 from guinea pig brain 5HT4 receptor in presence of serotonin incubated for 30 mins; format: tissue-based
[4] = biological target: 5-hydroxytryptamine receptor 4 (Cavia porcellus) (UniProt O70528); experiment: Displacement of [3H]-GR113808 from guinea pig brain 5HT4 receptor at 1 uM in presence of serotonin incubated for 30 mins; format: tissue-based
[5] = biological target: 5-hydroxytryptamine receptor 4 (Cavia porcellus) (UniProt O70528); experiment: Displacement of [3H]-GR113808 from guinea pig brain 5HT4 receptor at 0.01 uM in presence of serotonin incubated for 30 mins; format: tissue-based
[6] = biological target: T2, 5-hydroxytryptamine receptor 2C (Homo sapiens) (UniProt P28335); experiment: Displacement of [125I]+/-DOI from human recombinant 5-HT2C receptor at 10 uM after 60 mins by scintillation counting analysis relative to control
T2 sequence (whole entry): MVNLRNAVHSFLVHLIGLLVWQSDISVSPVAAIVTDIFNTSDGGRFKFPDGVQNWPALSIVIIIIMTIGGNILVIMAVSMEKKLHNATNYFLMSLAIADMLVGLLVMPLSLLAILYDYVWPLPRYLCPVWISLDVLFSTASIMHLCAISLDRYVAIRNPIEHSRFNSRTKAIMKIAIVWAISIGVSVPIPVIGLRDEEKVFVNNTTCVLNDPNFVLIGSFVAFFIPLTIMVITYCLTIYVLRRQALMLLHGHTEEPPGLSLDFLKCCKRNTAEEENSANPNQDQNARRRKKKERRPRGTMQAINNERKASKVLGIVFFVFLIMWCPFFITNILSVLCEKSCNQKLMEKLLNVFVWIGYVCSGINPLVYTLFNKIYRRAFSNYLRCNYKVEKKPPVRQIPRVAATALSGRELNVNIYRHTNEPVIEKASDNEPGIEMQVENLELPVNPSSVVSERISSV

[7] = biological target: 5-hydroxytryptamine receptor 1D (Rattus norvegicus) (UniProt P28565); experiment: Displacement of [3H]serotonin from recombinant rat 5-HT1D receptor at 10 uM after 60 mins by scintillation counting analysis relative to control
[8] = biological target: T1, 5-hydroxytryptamine receptor 6; experiment: Displacement of [3H]-LSD from human 5-HT6 receptor expressed in HEK293 cells in presence of serotonin incubated for 60 mins; format: cell-based
[9] = Toxicity in NMRI mouse assessed as behavioral changes upto 100 mg/kg, ip measured 0.5 to 24 hrs; format: organism-based; conditions: in vivo, time 0.5-24 hrs
Mus musculus [10] = experiment: Anti-amnesic effect in scopolamine-induced memory impairment NMRI mouse model assessed as spatial working memory by measuring increase in spontaneous alteration at 10 mg/kg, ip measured after 30 mins by Y-maze test; format: functional, organism-based
[11] = biological target: T3, 5-hydroxytryptamine receptor 2C (Homo sapiens, UniProt P28335); experiment: Displacement of [125I]+/-DOI from human recombinant 5-HT2C receptor after 60 mins by scintillation counting analysis
T3 sequence (P28335 whole entry): T2 sequence (whole entry)

[12] = biological target: 5-hydroxytryptamine receptor 2B (Homo sapiens) (UniProt P41595); experiment: Displacement of [125I]+/-DOI from human recombinant 5-HT2B receptor at 0.01 uM after 60 mins by scintillation counting analysis relative to control
Mus musculus [13] = experiment: Anti-amnesic effect in scopolamine-induced memory impairment NMRI mouse model assessed as spatial working memory by measuring increase in spontaneous alteration at 1 mg/kg, ip measured after 30 mins by Y-maze test; format: functional, organism-based
[14] = Toxicity in NMRI mouse assessed as neurological changes upto 100 mg/kg, ip measured 0.5 to 24 hrs; format: organism-based; conditions: in vivo, time 0.5-24 hrs
[15] = biological target: T4, 5-hydroxytryptamine receptor 1A (Homo sapiens) (UniProt P08908); experiment: Displacement of [3H]8-OH-DPAT from recombinant human 5-HT1A receptor at 10 uM after 60 mins by scintillation counting analysis relative to control
T4 sequence (whole entry): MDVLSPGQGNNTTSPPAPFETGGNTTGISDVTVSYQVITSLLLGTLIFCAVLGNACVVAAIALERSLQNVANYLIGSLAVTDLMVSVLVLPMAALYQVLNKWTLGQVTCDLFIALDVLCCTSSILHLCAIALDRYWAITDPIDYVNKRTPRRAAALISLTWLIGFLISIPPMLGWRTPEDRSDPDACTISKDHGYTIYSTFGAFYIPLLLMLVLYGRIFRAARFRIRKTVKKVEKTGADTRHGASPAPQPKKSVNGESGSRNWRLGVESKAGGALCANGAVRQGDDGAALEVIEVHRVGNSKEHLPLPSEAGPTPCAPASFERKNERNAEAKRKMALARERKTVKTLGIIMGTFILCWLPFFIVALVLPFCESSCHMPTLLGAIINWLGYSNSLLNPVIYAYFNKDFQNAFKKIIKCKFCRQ

Mus musculus [16] = experiment: Anti-amnesic effect in scopolamine-induced memory impairment NMRI mouse model assessed as spatial working memory by measuring increase in spontaneous alteration at 0.1 mg/kg, ip measured after 30 mins by Y-maze test; format: functional, organism-based
[17] = Effect on spontaneous locomotory activity in NMRI mouse at 100 mg/kg, ip measured for 30 mins; format: organism-based; conditions: in vivo, 0.5 h
[18] = biological target: T5, 5-hydroxytryptamine receptor 2A (Homo sapiens, UniProt P28223); experiment: Displacement of [3H]ketanserin human recombinant 5-HT2A receptor at 10 uM after 60 mins by scintillation counting analysis relative to control
[19] = biological target: 5-hydroxytryptamine receptor 1B (Rattus norvegicus) (UniProt P28564); experiment: Displacement of [125I]-CYP from rat brain 5-HT1B receptor at 10 uM after 120 mins by scintillation counting analysis relative to control; format: tissue-based
[20] = biological target: 5-hydroxytryptamine receptor 2B (Homo sapiens) (UniProt P41595); experiment: Displacement of [125I]+/-DOI from human recombinant 5-HT2B receptor at 10 uM after 60 mins by scintillation counting analysis relative to control
[21] = biological target: T5, 5-hydroxytryptamine receptor 2A; experiment: Displacement of [3H]ketanserin human recombinant 5-HT2A receptor after 60 mins by scintillation counting analysis relative to control

T1 sequence (P50406 whole entry): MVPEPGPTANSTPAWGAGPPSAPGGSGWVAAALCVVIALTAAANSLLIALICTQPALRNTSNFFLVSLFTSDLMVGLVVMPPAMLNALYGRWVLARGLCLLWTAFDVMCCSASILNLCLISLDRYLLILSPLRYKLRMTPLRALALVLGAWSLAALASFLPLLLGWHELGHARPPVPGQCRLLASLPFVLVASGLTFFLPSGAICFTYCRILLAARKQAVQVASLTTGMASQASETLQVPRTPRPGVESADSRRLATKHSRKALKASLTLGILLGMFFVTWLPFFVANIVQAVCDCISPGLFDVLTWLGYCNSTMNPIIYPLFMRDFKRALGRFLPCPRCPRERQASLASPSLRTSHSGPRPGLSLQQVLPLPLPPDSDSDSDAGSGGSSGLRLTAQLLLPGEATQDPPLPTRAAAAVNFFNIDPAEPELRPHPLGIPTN
5-hydroxytryptamine receptor 4 (Cavia porcellus), sequence (O70528 whole entry): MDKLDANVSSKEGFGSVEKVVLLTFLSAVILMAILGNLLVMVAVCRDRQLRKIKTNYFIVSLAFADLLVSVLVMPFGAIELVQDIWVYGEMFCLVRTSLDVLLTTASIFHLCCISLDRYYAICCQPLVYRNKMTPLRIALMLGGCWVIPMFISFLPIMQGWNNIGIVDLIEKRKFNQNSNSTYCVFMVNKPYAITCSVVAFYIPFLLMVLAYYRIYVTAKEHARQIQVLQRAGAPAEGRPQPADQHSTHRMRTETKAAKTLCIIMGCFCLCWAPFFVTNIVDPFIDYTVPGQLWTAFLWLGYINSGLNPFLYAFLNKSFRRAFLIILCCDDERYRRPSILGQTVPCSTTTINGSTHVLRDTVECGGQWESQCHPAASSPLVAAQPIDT
5-hydroxytryptamine receptor 4, sequence (O70528 whole entry): as above
T5 sequence (P28223 whole entry): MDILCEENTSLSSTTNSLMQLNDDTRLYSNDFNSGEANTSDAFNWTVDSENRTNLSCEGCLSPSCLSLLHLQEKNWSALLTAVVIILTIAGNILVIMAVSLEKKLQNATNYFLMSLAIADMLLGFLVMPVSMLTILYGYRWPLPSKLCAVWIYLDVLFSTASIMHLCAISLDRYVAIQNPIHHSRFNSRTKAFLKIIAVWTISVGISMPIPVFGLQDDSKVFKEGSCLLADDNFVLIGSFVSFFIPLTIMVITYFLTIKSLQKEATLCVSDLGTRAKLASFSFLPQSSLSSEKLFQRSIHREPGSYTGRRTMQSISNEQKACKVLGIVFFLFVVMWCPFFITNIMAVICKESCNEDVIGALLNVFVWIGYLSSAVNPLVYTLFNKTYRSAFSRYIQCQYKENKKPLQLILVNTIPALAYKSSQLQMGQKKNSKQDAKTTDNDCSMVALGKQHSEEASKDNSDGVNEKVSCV
5-hydroxytryptamine receptor 2B (Homo sapiens), sequence (P41595 whole entry): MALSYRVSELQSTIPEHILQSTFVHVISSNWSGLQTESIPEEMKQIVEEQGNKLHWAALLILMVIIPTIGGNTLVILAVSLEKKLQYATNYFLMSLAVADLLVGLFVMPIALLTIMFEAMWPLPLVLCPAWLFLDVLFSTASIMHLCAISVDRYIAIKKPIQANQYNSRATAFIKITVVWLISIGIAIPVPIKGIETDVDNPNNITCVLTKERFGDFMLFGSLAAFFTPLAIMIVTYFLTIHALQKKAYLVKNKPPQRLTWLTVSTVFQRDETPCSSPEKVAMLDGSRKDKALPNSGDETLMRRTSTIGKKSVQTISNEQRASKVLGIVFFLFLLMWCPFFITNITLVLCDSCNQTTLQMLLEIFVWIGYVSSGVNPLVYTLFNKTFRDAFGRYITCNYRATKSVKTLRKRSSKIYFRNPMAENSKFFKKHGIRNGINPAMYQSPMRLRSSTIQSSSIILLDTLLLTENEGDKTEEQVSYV
5-hydroxytryptamine receptor 1D (Rattus norvegicus), sequence (P28565 whole entry): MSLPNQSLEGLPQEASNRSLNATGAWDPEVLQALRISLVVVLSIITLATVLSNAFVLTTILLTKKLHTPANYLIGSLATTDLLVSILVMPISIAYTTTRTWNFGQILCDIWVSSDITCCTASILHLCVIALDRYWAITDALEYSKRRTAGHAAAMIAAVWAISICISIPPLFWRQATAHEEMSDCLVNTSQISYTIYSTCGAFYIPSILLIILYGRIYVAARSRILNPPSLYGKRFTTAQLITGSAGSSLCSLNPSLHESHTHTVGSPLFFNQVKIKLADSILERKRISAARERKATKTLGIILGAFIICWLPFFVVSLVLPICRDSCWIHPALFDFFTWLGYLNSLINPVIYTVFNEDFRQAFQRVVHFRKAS
5-hydroxytryptamine receptor 1B (Rattus norvegicus), sequence (P28564 whole entry): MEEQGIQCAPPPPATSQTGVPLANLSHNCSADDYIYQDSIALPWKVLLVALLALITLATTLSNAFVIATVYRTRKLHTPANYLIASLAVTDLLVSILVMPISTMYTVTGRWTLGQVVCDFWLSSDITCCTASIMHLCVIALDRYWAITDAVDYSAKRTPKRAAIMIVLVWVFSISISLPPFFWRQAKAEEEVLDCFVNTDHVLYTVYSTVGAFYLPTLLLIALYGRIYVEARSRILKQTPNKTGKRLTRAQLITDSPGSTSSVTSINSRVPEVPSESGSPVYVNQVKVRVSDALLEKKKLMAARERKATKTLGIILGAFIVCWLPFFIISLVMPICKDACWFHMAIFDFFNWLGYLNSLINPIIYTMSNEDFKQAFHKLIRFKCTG

Compound	inhibition [1]	inhibition ([2]; filed as antagonist)	Ki ([3]; read-out: Ki)	inhibition ([4]; filed as agonist)	inhibition ([5]; filed as agonist)	inhibition [5]	further results
COc1cc(N)c(Cl)cc1C(=O)CCC1CCN(CCNS(=O)(=O)c2ccc(N)cc2)CC1	7%	46%	1.97 nM	100%	76%	–	–
COc1cc(N)c(Cl)cc1C(=O)CCC1CCN(CCNS(=O)(=O)c2ccc(N)c(Br)c2)CC1	39%	85%	5.3 nM	100%	60%	–	inhibition [6]: 92.6%; inhibition [7]: 51.1%; Ki ([8]; read-out: Ki): 219 nM; Activity [9]: Non-Toxic; Activity (Mus musculus [10]): inactive; Ki [11]: 160 nM; inhibition [12]: 41%; Activity (Mus musculus [13]): Active; Activity [14]: Non-Toxic; inhibition [15]: 66.1%; Activity (Mus musculus [16]): inactive; Activity [17]: Non-Toxic; inhibition [18]: 93.6%; inhibition [19]: 62.3%; inhibition [20]: 100%; Ki [21]: 330 nM
COc1cc(N)c(Cl)cc1C(=O)CCC1CCN(CCNS(=O)(=O)c2ccc(C)cc2)CC1	inactive	–	18 nM	100%	–	20%	inhibition [2]: 15%
COc1ccc(S(=O)(=O)NCCN2CCC(CCC(=O)c3cc(Cl)c(N)cc3OC)CC2)cc1OC	3%	58%	8.2 nM	100%	–	30%	–
COc1cc(N)c(Cl)cc1C(=O)CCC1CCN(CCNS(=O)(=O)c2ccc(OC)c(N3CCN(C)CC3)c2)CC1	4%	43%	3.46 nM	97%	75%	–	–
COc1ccc(S(=O)(=O)N2CCC(CCC(=O)c3cc(Cl)c(N)cc3OC)CC2)cc1	inactive	–	–	–	–	10%	inhibition [2]: inactive; inhibition [4]: 20%
COc1cc(N)c(Cl)cc1C(=O)CCC1CCN(CCNS(=O)(=O)c2cc(Br)ccc2Br)CC1	16%	52%	16.3 nM	100%	51%	–	–
COc1cc(N)c(Cl)cc1C(=O)CCC1CCN(CCNS(=O)(=O)c2ccc(NC(C)=O)cc2)CC1	7%	67%	7.7 nM	100%	56%	–	Ki ([8]; read-out: Ki): 834 nM
COc1ccc(S(=O)(=O)NCCN2CCC(CCC(=O)c3cc(Cl)c(N)cc3OC)CC2)c(OC)c1	inactive	45%	18.7 nM	100%	–	19%	–
COc1ccc(S(=O)(=O)NCCN2CCC(CCC(=O)c3cc(Cl)c(N)cc3OC)CC2)cc1Br	inactive	72%	24.3 nM	99%	–	24%	Ki ([8]; read-out: Ki): 147 nM
COc1ccc(S(=O)(=O)NCCCN2CCC(CCC(=O)c3cc(Cl)c(N)cc3OC)CC2)cc1	inactive	–	26 nM	100%	41%	–	inhibition [2]: inactive
COc1cc(N)c(Cl)cc1C(=O)CCC1CCN(CCNS(=O)(=O)c2cc(Br)c(N)c(Br)c2)CC1	–	83%	8.7 nM	100%	46%	–	Ki ([8]; read-out: Ki): 140 nM; inhibition ([1]; filed as antagonist): 52%
COc1ccc(S(=O)(=O)NCCN2CCC(CCC(=O)c3cc(Cl)c(N)cc3OC)CC2)cc1	36%	52%	12.3 nM	100%	48%	–	–
COc1ccc(NS(=O)(=O)c2sc3ccc(Cl)cc3c2C)cc1N1CCNCC1	–	–	–	–	–	–	Ki ([8]; hek293): Active
COc1cc(N)c(Cl)cc1C(=O)CCC1CCN(CCNS(=O)(=O)c2ccc3c(c2)N(C)CCO3)CC1	inactive	–	50 nM	100%	–	12%	inhibition [2]: 7%
COc1ccc(S(=O)(=O)NCCN2CCC(CCC(=O)c3cc(Cl)c(N)cc3OC)CC2)cc1Cl	20%	85%	22.5 nM	100%	41%	–	Ki ([8]; read-out: Ki): 158 nM
CCCCN1CCC(CCC(=O)c2cc(Cl)c(N)cc2OC)CC1	–	–	–	–	–	–	Ki ([8]; hek293): Active; Ki [3]: Active
COc1ccc(S(=O)(=O)CCCN2CCC(CCC(=O)c3cc(Cl)c(N)cc3OC)CC2)cc1	10%	–	12.2 nM	100%	–	11%	inhibition [2]: 33%
COc1cc(N)c(Cl)cc1C(=O)CCC1CCN(CCNS(=O)(=O)c2ccc3c(c2)NC(=O)CO3)CC1	inactive	–	6.2 nM	100%	–	30%	inhibition ([2]; filed as agonist): 40%
